Test results taken from ChEMBL document CHEMBL5046284, “Structure-Based Design of a Chemical Probe Set for the 5-HT5A Serotonin Receptor” (J Med Chem, 2022).
Each block holds one compound with its values, some of them ahead of it. Active and inactive are the calls of the source.

Tests used:
[1] = target: T1, 5-hydroxytryptamine receptor 5A (Homo sapiens, UniProt P47898); assay: Displacement of [3H]-5-CT from human 5-HT5A receptor at 1 uM incubated for 2 hr by radioligand binding assay
[2] = target: T1, 5-hydroxytryptamine receptor 5A; assay: Antagonist activity at human 5-HT5AR assessed as […] of [35S]GTPgammaS binding at 100 uM incubated for 3 to 5 hrs; format: functional; conditions: filed as antagonist, time 3-5 hrs
[3] = target: T1, 5-hydroxytryptamine receptor 5A; assay: Displacement of [3H]-5-CT from human 5-HT5A receptor at 100 uM incubated for 2 hr by radioligand binding assay
[4] = target: T1, 5-hydroxytryptamine receptor 5A; assay: Agonist activity at human 5-HT5A receptor transfected in HTLA cells assessed as increase in beta-arrestin 2 recruitment by measuring maximal efficacy at 10 uM incubated for 18 to 20 hrs by bright-Glo reagent based Tango assay relative to control; format: functional, cell-based; conditions: time 18-20 hrs
Mus musculus [5] = assay: Antiallodynic activity in IT dosed […] mouse model of spared nerve injury-induced neuropathic pain assessed as increase in paw withdrawal mechanical threshold measured after 30 mins by von Frey test; format: functional, organism-based
[6] = target: T1, 5-hydroxytryptamine receptor 5A; assay: Agonist activity at human 5-HT5A receptor transfected in HTLA cells assessed as increase in beta-arrestin 2 recruitment at 10 uM incubated for 18 to 20 hrs by bright-Glo reagent based Tango assay; format: functional, cell-based
[7] = target: D(2) dopamine receptor (Homo sapiens) (UniProt P14416); assay: Agonist activity at DRD2 (unknown origin) transfected in HTLA cells assessed as beta-arrestin 2 recruitment at 10 uM incubated for 18 to 20 hrs by luciferin based Tango assay; format: functional, cell-based; conditions: filed as agonist, time 18-20 hrs
Homo sapiens = organism: Homo sapiens; assay: Binding affinity to human 5-HT5A receptor W117A mutant ssessed as fold reduction in binding by competition binding assay relative to control; conditions: filed as agonist
Mus musculus [8] = assay: Effect on baseline mechanical thresholds in IT dosed […] mouse measured after 30 mins by von Frey test; format: functional, organism-based
[9] = target: 5-hydroxytryptamine receptor 7 (Homo sapiens) (UniProt P34969); assay: Binding affinity to 5-HT7AR (unknown origin)
[10] = target: T2, 5-hydroxytryptamine receptor 2C (Homo sapiens) (UniProt P28335); assay: Agonist activity at 5-HT2CR (unknown origin) transfected in HTLA cells assessed as beta-arrestin 2 recruitment at 10 uM incubated for 18 to 20 hrs by luciferin based Tango assay; format: functional, cell-based; conditions: filed as agonist, time 18-20 hrs
T2 sequence (whole entry): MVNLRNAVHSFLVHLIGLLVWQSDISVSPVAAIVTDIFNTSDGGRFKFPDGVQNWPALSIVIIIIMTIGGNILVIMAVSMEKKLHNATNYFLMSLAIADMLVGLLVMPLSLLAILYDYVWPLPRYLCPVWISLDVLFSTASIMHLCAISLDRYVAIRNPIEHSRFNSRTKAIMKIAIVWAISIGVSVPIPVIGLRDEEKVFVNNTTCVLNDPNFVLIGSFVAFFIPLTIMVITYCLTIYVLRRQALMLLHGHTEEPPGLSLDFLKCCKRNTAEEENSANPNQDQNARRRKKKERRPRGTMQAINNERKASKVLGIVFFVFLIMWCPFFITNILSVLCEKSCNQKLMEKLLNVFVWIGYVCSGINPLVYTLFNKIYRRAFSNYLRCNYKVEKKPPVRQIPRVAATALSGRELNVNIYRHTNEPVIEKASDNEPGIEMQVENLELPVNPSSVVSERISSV

[11] = target: T3, 5-hydroxytryptamine receptor 1A (Homo sapiens) (UniProt P08908); assay: (§1) Binding affinity to 5-HT1AR (unknown origin) assessed as inhibition constant
T3 sequence (whole entry): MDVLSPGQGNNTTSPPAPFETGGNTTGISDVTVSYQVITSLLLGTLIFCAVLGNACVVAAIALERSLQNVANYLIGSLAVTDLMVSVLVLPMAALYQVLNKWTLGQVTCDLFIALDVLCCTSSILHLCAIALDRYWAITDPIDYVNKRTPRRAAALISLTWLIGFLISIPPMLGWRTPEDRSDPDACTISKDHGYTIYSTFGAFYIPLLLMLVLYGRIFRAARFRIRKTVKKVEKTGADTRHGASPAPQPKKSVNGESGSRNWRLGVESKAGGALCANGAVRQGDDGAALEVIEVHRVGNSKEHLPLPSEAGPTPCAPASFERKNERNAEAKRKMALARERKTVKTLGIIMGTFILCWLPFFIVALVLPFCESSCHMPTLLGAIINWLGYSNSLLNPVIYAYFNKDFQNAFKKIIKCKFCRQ

Mus musculus [12] = assay: Sedative activity in IT dosed […] mouse assessed as effect on locomotor activity measured after 60 mins by rotarod test; format: toxicity, organism-based; conditions: in vivo, icv_or_intrathecal, 1 h
[13] = target: 5-hydroxytryptamine receptor 2B (Homo sapiens, UniProt P41595); assay: Binding affinity to 5-HT2BR (unknown origin) assessed as inhibition constant
[14] = target: T1, 5-hydroxytryptamine receptor 5A; assay: Displacement of [3H]-5-CT from human 5-HT5A receptor incubated for 2 hr by radioligand binding assay
[15] = target: Atypical chemokine receptor 3 (Homo sapiens) (UniProt P25106); assay: Agonist activity at CXCR7 (unknown origin) transfected in HTLA cells assessed as beta-arrestin 2 recruitment at 10 uM incubated for 18 to 20 hrs by luciferin based Tango assay; format: functional, cell-based; conditions: time 18-20 hrs
[16] = target: T4, Alpha-2A adrenergic receptor (Homo sapiens) (UniProt P08913); assay: Agonist activity at ADRA2A (unknown origin) transfected in HTLA cells assessed as beta-arrestin 2 recruitment at 10 uM incubated for 18 to 20 hrs by luciferin based Tango assay; format: functional, cell-based; conditions: time 18-20 hrs
T4 sequence (whole entry): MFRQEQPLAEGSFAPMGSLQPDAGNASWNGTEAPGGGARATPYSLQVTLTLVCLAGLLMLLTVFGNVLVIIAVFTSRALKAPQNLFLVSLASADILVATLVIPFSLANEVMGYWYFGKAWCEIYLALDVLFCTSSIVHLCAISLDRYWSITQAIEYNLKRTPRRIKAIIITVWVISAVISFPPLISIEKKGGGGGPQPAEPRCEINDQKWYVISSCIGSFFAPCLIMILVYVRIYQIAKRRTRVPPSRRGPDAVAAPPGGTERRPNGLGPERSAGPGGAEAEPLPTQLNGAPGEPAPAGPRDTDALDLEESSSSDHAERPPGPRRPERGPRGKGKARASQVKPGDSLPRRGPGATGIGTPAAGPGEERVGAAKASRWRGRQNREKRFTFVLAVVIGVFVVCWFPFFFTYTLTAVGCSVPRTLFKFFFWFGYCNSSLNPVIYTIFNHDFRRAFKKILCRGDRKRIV

[17] = target: 5-hydroxytryptamine receptor 1D (Homo sapiens, UniProt P28221); assay: Binding affinity to 5-HT1DR (unknown origin) assessed as inhibition constant
[18] = target: T5, 5-hydroxytryptamine receptor 3A (Homo sapiens) (UniProt P46098); assay: (§2) Binding affinity to 5-HT3 (unknown origin) assessed as inhibition constant
T5 sequence (whole entry): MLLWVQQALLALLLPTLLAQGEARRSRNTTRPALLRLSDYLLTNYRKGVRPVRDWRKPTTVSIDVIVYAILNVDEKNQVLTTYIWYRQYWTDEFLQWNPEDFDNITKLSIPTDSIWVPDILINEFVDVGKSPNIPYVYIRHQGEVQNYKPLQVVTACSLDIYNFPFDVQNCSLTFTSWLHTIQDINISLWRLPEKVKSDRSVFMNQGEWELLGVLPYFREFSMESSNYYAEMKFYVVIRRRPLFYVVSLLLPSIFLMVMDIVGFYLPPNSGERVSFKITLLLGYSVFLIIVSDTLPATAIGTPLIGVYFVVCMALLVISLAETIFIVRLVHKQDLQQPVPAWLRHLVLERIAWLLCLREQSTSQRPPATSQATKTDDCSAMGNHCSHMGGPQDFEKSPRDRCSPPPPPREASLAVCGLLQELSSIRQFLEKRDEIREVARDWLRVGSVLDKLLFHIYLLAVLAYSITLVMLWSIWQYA

[19] = target: Melatonin receptor type 1A (Homo sapiens) (UniProt P48039); assay: Agonist activity at MTNR1A (unknown origin) transfected in HTLA cells assessed as beta-arrestin 2 recruitment at 10 uM incubated for 18 to 20 hrs by luciferin based Tango assay; format: functional, cell-based; conditions: time 18-20 hrs
[20] = target: 5-hydroxytryptamine receptor 2A (Homo sapiens, UniProt P28223); assay: Binding affinity to 5-HT2AR (unknown origin) assessed as inhibition constant
[21] = target: T2, 5-hydroxytryptamine receptor 2C (Homo sapiens); assay: (§3) Binding affinity to 5-HT2CR (unknown origin) assessed as inhibition constant
[22] = target: 5-hydroxytryptamine receptor 1B (Homo sapiens, UniProt P28222); assay: Binding affinity to 5-HT1BR (unknown origin) assessed as inhibition constant
[23] = target: T1, 5-hydroxytryptamine receptor 5A; assay: Displacement of [3H]-5-CT from human 5-HT5A receptor at 32 uM incubated for 2 hr by radioligand binding assay
HEK-293T = assay: Cytotoxicity against HEK293T cells assessed as reduction in cell viability at high concentration incubated for overnight; format: toxicity, cell-based; conditions: human
[24] = target: T6, 5-hydroxytryptamine receptor 3A (Homo sapiens, UniProt P46098); assay: as §2
T6 sequence (P46098 whole entry): T5 sequence (whole entry)

[25] = target: T7, 5-hydroxytryptamine receptor 1A (Homo sapiens, UniProt P08908); assay: as §1
T7 sequence (P08908 whole entry): T3 sequence (whole entry)

[26] = target: T8, 5-hydroxytryptamine receptor 2C (Homo sapiens, UniProt P28335); assay: as §3
T8 sequence (P28335 whole entry): T2 sequence (whole entry)

[27] = target: T1, 5-hydroxytryptamine receptor 5A; assay: Antagonist activity at human 5-HT5AR assessed as inhibition of beta-arrestin 2 recruitment by measuring reduction in RLuc8-based luminescence incubated for 20 to 30 mins in absence of agonist by luminescence based analysis; format: functional; conditions: filed as antagonist, time 20-30 min

T1 sequence (P47898 whole entry): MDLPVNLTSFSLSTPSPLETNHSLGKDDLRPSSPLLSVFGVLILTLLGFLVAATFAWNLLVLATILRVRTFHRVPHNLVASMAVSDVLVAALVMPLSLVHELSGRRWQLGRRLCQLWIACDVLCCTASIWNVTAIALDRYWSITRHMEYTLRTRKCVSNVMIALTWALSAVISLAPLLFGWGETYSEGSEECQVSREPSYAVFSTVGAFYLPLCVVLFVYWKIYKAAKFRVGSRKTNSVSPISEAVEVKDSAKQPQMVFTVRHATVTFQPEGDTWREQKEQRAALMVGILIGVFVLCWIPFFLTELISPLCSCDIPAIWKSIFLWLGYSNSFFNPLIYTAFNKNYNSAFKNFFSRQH
5-hydroxytryptamine receptor 2B, sequence (P41595 whole entry): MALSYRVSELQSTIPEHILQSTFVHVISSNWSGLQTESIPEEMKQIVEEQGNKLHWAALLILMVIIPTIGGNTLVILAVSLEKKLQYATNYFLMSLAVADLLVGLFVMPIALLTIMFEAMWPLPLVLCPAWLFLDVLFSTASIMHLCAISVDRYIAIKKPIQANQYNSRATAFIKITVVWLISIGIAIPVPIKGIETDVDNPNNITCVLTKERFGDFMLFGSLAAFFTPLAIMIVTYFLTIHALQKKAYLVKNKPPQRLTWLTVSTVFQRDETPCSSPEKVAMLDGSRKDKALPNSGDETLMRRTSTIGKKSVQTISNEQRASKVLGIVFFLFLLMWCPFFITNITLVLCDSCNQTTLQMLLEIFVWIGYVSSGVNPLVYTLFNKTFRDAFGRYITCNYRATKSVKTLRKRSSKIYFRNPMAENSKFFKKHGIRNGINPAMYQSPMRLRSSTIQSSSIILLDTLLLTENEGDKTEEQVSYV
5-hydroxytryptamine receptor 2A, sequence (P28223 whole entry): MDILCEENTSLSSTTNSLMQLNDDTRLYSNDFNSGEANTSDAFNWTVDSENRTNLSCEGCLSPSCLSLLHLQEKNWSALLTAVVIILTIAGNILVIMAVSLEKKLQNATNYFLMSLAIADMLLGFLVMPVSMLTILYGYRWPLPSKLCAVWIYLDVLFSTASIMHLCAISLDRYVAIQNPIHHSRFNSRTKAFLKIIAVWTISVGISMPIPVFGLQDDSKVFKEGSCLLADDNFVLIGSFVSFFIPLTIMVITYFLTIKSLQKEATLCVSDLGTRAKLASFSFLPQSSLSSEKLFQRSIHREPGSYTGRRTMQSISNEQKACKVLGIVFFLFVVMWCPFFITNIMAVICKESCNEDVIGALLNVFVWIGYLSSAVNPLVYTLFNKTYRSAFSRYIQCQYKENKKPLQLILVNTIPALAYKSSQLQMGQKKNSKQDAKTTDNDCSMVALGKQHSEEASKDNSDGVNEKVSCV
5-hydroxytryptamine receptor 1B, sequence (P28222 whole entry): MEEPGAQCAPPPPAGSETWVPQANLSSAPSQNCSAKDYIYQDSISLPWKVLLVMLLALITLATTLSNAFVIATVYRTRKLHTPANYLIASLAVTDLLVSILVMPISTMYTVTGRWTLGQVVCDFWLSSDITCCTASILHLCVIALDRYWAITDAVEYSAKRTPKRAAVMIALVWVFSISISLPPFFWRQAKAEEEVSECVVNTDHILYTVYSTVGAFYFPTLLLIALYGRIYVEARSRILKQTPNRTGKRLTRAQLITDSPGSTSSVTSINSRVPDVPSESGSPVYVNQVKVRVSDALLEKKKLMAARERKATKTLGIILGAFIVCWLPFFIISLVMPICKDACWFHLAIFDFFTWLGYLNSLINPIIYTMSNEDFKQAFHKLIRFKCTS
5-hydroxytryptamine receptor 7 (Homo sapiens), sequence (P34969 whole entry): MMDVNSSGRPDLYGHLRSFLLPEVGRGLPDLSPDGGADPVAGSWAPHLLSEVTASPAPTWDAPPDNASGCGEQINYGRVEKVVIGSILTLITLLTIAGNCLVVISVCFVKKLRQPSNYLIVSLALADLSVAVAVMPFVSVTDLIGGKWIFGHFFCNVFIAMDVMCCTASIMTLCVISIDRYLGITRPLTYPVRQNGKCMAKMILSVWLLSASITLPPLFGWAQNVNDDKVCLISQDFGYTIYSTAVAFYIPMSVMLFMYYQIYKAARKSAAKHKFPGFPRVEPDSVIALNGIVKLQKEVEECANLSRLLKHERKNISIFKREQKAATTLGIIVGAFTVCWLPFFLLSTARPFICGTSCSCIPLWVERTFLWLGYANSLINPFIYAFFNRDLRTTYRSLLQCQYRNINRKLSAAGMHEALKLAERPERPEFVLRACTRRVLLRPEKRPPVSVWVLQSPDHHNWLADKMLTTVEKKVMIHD
5-hydroxytryptamine receptor 1D, sequence (P28221 whole entry): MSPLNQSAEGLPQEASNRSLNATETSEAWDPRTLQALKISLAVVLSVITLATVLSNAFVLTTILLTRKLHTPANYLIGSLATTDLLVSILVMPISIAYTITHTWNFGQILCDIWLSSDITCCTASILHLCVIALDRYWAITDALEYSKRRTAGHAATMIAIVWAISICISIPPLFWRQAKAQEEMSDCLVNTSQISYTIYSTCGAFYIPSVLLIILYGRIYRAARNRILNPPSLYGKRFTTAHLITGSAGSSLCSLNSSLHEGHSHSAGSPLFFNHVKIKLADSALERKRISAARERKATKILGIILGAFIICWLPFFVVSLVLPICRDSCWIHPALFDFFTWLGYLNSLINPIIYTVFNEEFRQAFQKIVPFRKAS
D(2) dopamine receptor (Homo sapiens), sequence (P14416 whole entry): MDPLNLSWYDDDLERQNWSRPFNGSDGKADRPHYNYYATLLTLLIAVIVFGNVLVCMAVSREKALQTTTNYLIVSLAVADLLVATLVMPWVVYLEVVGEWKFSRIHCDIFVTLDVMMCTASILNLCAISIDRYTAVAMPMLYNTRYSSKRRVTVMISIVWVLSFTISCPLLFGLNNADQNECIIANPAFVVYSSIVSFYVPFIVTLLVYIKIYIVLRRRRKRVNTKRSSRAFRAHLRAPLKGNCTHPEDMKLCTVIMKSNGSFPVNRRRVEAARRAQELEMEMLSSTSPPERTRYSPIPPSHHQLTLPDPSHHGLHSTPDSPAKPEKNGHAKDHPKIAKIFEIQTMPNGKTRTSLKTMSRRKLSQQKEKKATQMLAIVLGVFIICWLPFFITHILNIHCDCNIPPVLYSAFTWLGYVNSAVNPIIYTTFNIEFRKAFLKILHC
Atypical chemokine receptor 3 (Homo sapiens), sequence (P25106 whole entry): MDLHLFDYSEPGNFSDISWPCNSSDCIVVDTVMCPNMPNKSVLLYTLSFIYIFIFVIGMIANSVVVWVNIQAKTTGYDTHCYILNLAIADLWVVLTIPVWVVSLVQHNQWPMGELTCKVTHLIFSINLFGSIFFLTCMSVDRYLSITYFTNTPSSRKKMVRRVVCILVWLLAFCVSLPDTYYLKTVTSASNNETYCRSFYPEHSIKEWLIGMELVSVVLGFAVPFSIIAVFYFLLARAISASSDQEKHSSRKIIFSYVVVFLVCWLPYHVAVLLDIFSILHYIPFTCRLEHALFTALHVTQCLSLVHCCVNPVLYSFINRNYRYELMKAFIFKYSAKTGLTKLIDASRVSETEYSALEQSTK
Melatonin receptor type 1A (Homo sapiens), sequence (P48039 whole entry): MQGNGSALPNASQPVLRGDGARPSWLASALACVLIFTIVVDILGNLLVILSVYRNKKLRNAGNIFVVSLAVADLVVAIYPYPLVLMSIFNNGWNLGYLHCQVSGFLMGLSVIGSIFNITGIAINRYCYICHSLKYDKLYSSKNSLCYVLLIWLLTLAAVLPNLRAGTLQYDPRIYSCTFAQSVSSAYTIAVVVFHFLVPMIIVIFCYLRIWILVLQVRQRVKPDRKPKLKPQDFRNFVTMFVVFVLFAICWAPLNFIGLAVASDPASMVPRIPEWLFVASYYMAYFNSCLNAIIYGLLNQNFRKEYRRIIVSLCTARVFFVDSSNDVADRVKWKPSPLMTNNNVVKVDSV

Ki [1]: 208 nM
Compound: CN(C)S(=O)(=O)CCNCc1ccc(Cl)c2cccnc12

Ki [1]: 705 nM
Compound: O=S1(=O)CCC[C@@H](CNCc2cccc3cccnc23)C1

Activity [2]: Active
Ki [3]: 12900 nM
Compound: Cc1cnc(NCc2ccccc2-n2ccnc2)nc1N(C)C

Emax [4]: 10.5%
EC50 [6]: 3630 nM
Compound: CS(=O)(=O)C1(CNCc2ccc(Cl)c3cccnc23)CC1
Activity (Mus musculus [5]): inactive

Activity [7]: Active
fold change (FC) (Homo sapiens): 25
Emax [4]: 18.3%
Activity [9]: inactive
Activity [10]: Active
Activity [11]: inactive
EC50 [6]: 355 nM
Activity [13]: inactive
Compound: CS(=O)(=O)C1(CNCc2cccc3cccnc23)CC1
Activity (Mus musculus [8]): inactive
Activity (Mus musculus [5]): Active
Activity (Mus musculus [12]): Non-Toxic

Ki [14]: 229 nM
Compound: CN(C)S(=O)(=O)CCNCc1cccc2cccnc12

Activity [15]: inactive
Ki [14]: > 10000 nM
Activity [9]: inactive
Activity [11]: inactive
Activity [13]: inactive
Compound: CCS(=O)(=O)CCCNCc1ccc(Cl)c2cccnc12
Activity (Mus musculus [8]): inactive
Activity (Mus musculus [5]): Active
Activity (Mus musculus [12]): Non-Toxic

Ki [14]: 271 nM
Compound: CN(C)S(=O)(=O)CCNCc1ccc(F)c2cccnc12

Ki [1]: 2400 nM
Compound: Clc1ccc(CNCCc2cccnc2)c2ncccc12

Activity [2]: Active
Ki [3]: 20900 nM
Compound: Cc1cnn(C[C@H](C)NCc2cccc(OCc3ccccn3)c2)c1

Compound: CS(=O)(=O)CCCNCc1ccc(Cl)c2cccnc12
Activity (Mus musculus [8]): inactive
Activity (Mus musculus [5]): Active
Activity (Mus musculus [12]): Non-Toxic

Ki [1]: 570 nM
Compound: O=S1(=O)CC[C@@H](CNCc2cccc3cccnc23)C1

Activity [16]: inactive
Activity [17]: inactive
Activity [18]: inactive
Activity [11]: inactive
Activity [19]: inactive
Activity [20]: inactive
Activity [21]: inactive
Activity [22]: inactive
Activity [13]: inactive
Compound: CN(C)S(=O)(=O)CCNCc1cccc2ncccc12
Activity (Mus musculus [5]): inactive

Ki [23]: 1500 nM
Compound: Clc1ccc(CNC[C@H]2CCn3ccnc3C2)c2ncccc12

Activity [2]: Active
Ki [3]: 11500 nM
Compound: O=C(CCCNCc1ccc(Cl)c2cccnc12)NC1CC1

Ki [23]: 4000 nM
Compound: CN1CC[C@H](CNCc2ccc(Cl)c3cccnc23)CC1=O

Ki [23]: 6700 nM
Compound: O=C1C[C@H](CNCc2ccc(Cl)c3cccnc23)CN1C1CC1

Ki [17]: < 2000 nM
Ki [24]: < 2000 nM
Activity [2]: Active
Ki [25]: < 2000 nM
Ki [20]: < 2000 nM
Ki [26]: < 2000 nM
Activity [27]: Dose-Dependent Effect
Ki [22]: < 2000 nM
Ki [13]: < 2000 nM
Compound: CN(C)CCN(Cc1ccc(-c2ccc(CNCCc3ccccc3)cc2)cc1)C(=O)CCC1CCCC1
Activity (HEK-293T): Non-Toxic

Activity [2]: Active
Ki [3]: 28800 nM
Compound: N#CC1(c2ccccc2)CCC(NCCc2nnc3ccccn23)CC1 (stereo not drawn)

fold change (FC) (Homo sapiens): 3.9
Ki [14]: 107 nM
Compound: CN(C)S(=O)(=O)C1(CNCc2ccc(Cl)c3cccnc23)CC1

Activity [2]: Active
Ki [3]: 21400 nM
Compound: CC(C)(C)c1ccc2c(c1)CN(C[C@@H](O)COC1CCOCC1)CC2

Ki [23]: 3100 nM
Compound: O=S1(=O)CCC[C@@H](CNCc2ccc(Cl)c3cccnc23)C1

Ki [23]: 6700 nM
Compound: Clc1ccc(CNCC[C@@H]2CCOC2)c2ncccc12
